Patent US20250282825A1, “NOVEL CYCLIC COMPOUNDS, METHOD FOR THEIR PREPARATION AND THE USE OF SAID CYCLIC COMPOUNDS IN COSMETIC PREPARATIONS” (priority 2020, published 2025)

Experiments:
[1] = test system: human primary keratinocytes; experiment: WST-1 assay (cell viability/cytotoxicity); format: cell-based; conditions: 3.1 μg/ml, 6 h, 37° C., keratinocytes from three donors, versus DMSO solvent control
Protocol: To determine possible cytotoxicity, a WST-1 assay was first performed using human primary keratinocytes from three different donors according to the manufacturer's instructions. The colorimetric assay measures cell viability of cells and can therefore be used to determine cytotoxic compounds incubated with the cells. The greater the number of viable cells, the higher the activity of mitochondrial dehydrogenases and the greater the amount of dye formed in the assay. […] Cell culture supernatants were then removed, and WST1 reagent was added to the keratinocytes. […] DMSO served as a negative control (solvent control).

[2] = test system: human primary keratinocytes; experiment: LDH assay (lactate dehydrogenase release); format: cell-based; conditions: 3.1 μg/ml, 24 h, 37° C., keratinocytes from three donors, relative to Triton-X (100%)
Protocol: To verify the results, an LDH assay was performed using human primary keratinocytes from three different donors according to the manufacturer's instructions. This assay is based on the detection of the enzyme lactate dehydrogenase, which is released into the cell culture medium when the cell membrane is damaged, where it can then be detected. […] Subsequently, 50 μl of each cell culture supernatant was transferred to a 96well plate, mixed with 50 μl of LDH reagent and measured (according to manufacturer's instructions). […] DMSO served as a negative control (solvent control).

S. aureus N315 LugIEFGH = format: cell-based, Staphylococcus aureus; conditions: for recognized and transported by the lugdunin transporters LugIEFGH: derived from MIC ratio, FIG. 5

| Compound | cytotoxic effect in WST-1 assay [1] | cytotoxic effect in LDH assay [2] | virus inhibition (SARS-CoV-2; A549 cells, SARS-CoV-2 MOI=1.0, concentration 3.7 μM) | antiviral activity relative to lugdunin (SARS-CoV-2; higher antiviral activity than lugdunin, from EC50 values) | EC50 (SARS-CoV-2; read-out: EC50 (SARS-CoV-2 antiviral activity), A549 cells, SARS-CoV-2 MOI=1.0) | recognized and transported by the lugdunin transporters LugIEFGH (S. aureus N315 LugIEFGH) | formation of resistance (S. aureus N315 LugIEFGH; conclusion from MIC ratio) | MIC ratio MIC(S. aureus LugIEFGH)/MIC(S. aureus Wt) (S. aureus N315 LugIEFGH; ratio close to 1 = no resistance increase by the transporters, lugdunin value is the median) |
| --- | --- | --- | --- | --- | --- | --- | --- | --- |
| CC(C)C[C@H]1NC(=O)[C@H](Cc2c[nH]c3ccccc23)NC(=O)[C@@H](C(C)C)NC(=O)[C@H]2NC(SC2(C)C)[C@H](C(C)C)NC(=O)[C@@H](Cc2c[nH]c3ccccc23)NC(=O)[C@H](C(C)C)NC1=O [I.3] | no such cytotoxic effect | no significant cytotoxic effect | about 80% | approximately 9 fold | 2220 nM |  |  |  |
| carbonyl cyanide-3-chrlophenylhydrazone [CCCP, reference compound] |  |  |  |  |  | neither I.1 nor CCCP, is recognized and transported |  |  |
| CC(C)C[C@H]1NC(=O)[C@H](Cc2c[nH]c3ccccc23)NC(=O)[C@@H](C(C)C)NC(=O)[C@H]2NC(SC2(C)C)[C@H](C(C)C)NC(=O)[C@@H](C(C)C)NC(=O)[C@H](C(C)C)NC1=O [I.1] |  |  |  |  |  | neither I.1 nor CCCP, is recognized and transported | no formation of resistance is to be expected | 1.064 |
